In patent US20210355539A1, “BIOMARKERS FROM MINIMALLY INVASIVE SAMPLING REFLECTIVE OF THE PLACENTAL IMMUNE MICROENVIRONMENT” (NEW YORK UNIVERSITY, priority 2020, published 2021):
Read-outs that look alike come from different tables or passages of the source.

Columns and labels:
term placental explants = test: Term placental explants treated with LPS and Cytochalasin-D, TNF-α ELISA; type: cell-based, human; conditions: 2 LPS doses and Cytochalasin-D (9.8 uM)
Excerpt: Human first and second trimester placentas from elective termination of normal pregnancies (8 to 23 weeks gestation) were collected. The second trimester placenta samples were obtained after elective terminations induced by mechanical evacuation only. Human first and second trimester and term placentas were also collected from vaginal delivery or C-section. A placental explant system was used to preserve the normal cellular architecture. Placental samples from term and third trimester were collected from the maternal side as previously described (Kim et al., 2018, Am J Reprod Immunol, December 26: e13080). Placental explants were processed immediately after collection and prepared as previously described (Peltier et al., 2013, Am J Reprod Immunol, 69: 142e149). […]
Supernatant cytokine concentrations were analyzed using Ready-Set-Go™ ELISA kits (eBioscience; San Diego, Calif.). The measured cytokines included TNF-a, IL-1b and IL-10 and the concentrations were expressed in pg/ml.
For this reason, the kit was utilized for all of the following experiments to isolate EVs. […] Media were collected and analyzed. […] THP-1 cell culture media was collected after 24 h, and TNF-α levels were analyzed by ELISA (FIG. 2E). […]

human placenta = conditions: cited from earlier work

SMILES | TNF-α production (term placental explants) [pg/mL] | effect on LPS induced inflammation and TNF-α production (human placenta; Speer et al., 2017, listed as pentoxifylline) | effect on LPS induced inflammation and TNF-α production (human placenta; Speer et al., 2017)
C=C1[C@@H](C)[C@H]2[C@H](Cc3ccccc3)NC(=O)[C@]23[C@H](OC(C)=O)/C=C/[C@@](C)(O)C(=O)[C@@H](C)C/C=C/[C@H]3[C@@H]1O [Cytoclasin-D, Cytochalasin-D] | 18979 ± 7626 |  | 
CC(=O)CCCCn1c(=O)c2c(ncn2C)n(C)c1=O [Pentoxixyline, pentoxifylline] |  | inhibits LPS induced TNF-α | inhibited LPS induced inflammation and TNF-α production
